Data published in US20250186503A1, “METHODS AND COMBINATIONS FOR TREATMENT AND T CELL MODULATION” (Juno Therapeutics, Inc., priority 2018, published 2025).
pEC50: −log10 of the molar value.

Key:
[1] = tested on: K562.CD19, Raji cells or Granta-519 cells; test: Cytolytic activity against CD19+ tumor cells, rescue with Compound 2 after chronic stimulation; type: cell-based, human; conditions: 0.001 μM or 0.01 μM during rechallenge; E:T 1:1
Experimental: Long-term, chronic stimulation was carried out by stimulation of CAR T cells with 30 μg/mL plate-bound anti-idiotypic (anti-ID) antibody for 6 days, substantially as described in Example 22.
(§1) The assessed CD19+tumor cells included K562 cells transduced with CD19 (K562.CD19), Raji cells or Granta-519 cells.

[2] = tested on: K562.CD19, Raji cells or Granta-519 cells; test: Cytolytic activity against CD19+ tumor cells after concurrent Compound 2 during chronic stimulation; type: cell-based, human; conditions: 0.001 μM or 0.01 μM concurrent; E:T 1:1
Source text: as §1

[3] = tested on: anti-BCMA CAR+ T cells; test: T cell markers on anti-BCMA CAR+ T cells stimulated with BCMA-conjugated beads; type: cell-based, human
Experimental: Approximately 1.5×10^6 CAR+ T cells were added to wells of a 12-well plate and were incubated with beads from a 200 μg/ml BCMA-conjugated bead composition at a ratio of CAR+ T cell to BCMA-conjugated bead of 1:0.3, 1:1 or 1:3 (approximately 0.5×10^6, 1.5, 10^6, and 4.5×10^6 beads per well, respectively). As controls, 5 μg/mL anti-CD3 antibody was coated to wells (sub-optimal concentration for stimulation) or cells were seeded in the absence of any agent (no stimulation control). […] The cells were incubated for four days and then analyzed by flow cytometry for surface expression of CD4, CD8, Tim3, PD-1, CD25 and CD69.
In a further experiment, anti-BCMA CAR-T cell compositions produced substantially as described in Example 1 were plated in 96-well plates at a density of 5×10^5 cells per well. The tested CAR-T cell compositions contained, on average, approximately 45% anti-BCMA CAR+ cells at plating. Cells from each composition were incubated for 18 hours in the presence of beads from a 5 μg/ml, 50 μg/ml, or 200 μg/ml BCMA-conjugated bead composition at a ratio of 1:1 T cells to beads. As a control, cells were incubated with anti-CD3/anti-CD28 antibody-conjugated beads (positive control) or no added agent (negative control). […] Following the incubation, the cells were treated with reagents that allowed for extracellular and intracellular antibody staining by flow cytometry for the transcription factors Blimp1, EOMES, GATA-3, ikaros, helios, and Tbet and markers CD25, CD31, and PD-1.

[4] = tested on: anti-BCMA CAR T cells; test: Proliferation and expansion of anti-BCMA CAR T cells stimulated with BCMA-conjugated beads; type: cell-based, human; conditions: 5 μM
Experimental: To further assess proliferation, the cells containing anti-BCMA CAR-expressing T cells were labeled with the proliferation marker dye CELLTRACE VIOLET (CTV; ThermoFisher Scientific, Waltham MA) in accordance with the manufacturer's protocol prior to incubation with the BCMA-conjugated beads. Proliferation was assessed by dye dilution using flow cytometry on cells that were stimulated with beads from the 50 μg/mL BCMA-conjugated bead composition.
Four days and seven days after addition of BCMA-conjugated beads, the incubated cells were stained with CD4 or CD8 and with an anti-EGFR antibody to determine the percentage of cells positive for EGFRt as a surrogate for CAR+ T cells.

[5] = tested on: CD19 directed CAR-expressing T cells; test: Antigen-dependent cytokine production by CD19 directed CAR-expressing T cells; type: cell-based, human; conditions: compared to vehicle control or equimolar concentrations of lenalidomide
Source text: […]. […] Data represents the mean+/−S.D. across 3 experiments.

[6] = tested on: A549 CD19+ tumor spheroids; test: Rescue of chronically stimulated anti-CD19 CAR T cells rechallenged with A549 CD19+ tumor spheroids; type: cell-based, human
Experimental: Anti-CD19 CAR-expressing T cell compositions (containing CD4+ and CD8+ T cells combined at a 1:1 ratio) were generated from three different healthy donors substantially as described in Example 14. To subject cells to chronic stimulation conditions, the CAR+ T cells were incubated with plate-bound anti-idiotypic (anti-ID) antibody (see e.g. WO2018/023100), and incubated at 37° C. for a period of 6 days. […] The A549 CD19+tumor spheroids were labeled with a dye to permit monitoring of tumor cell lysis by microscopy during the assay. Freshly thawed anti-CD19 CAR-expressing T cells that had not been subjected to the chronic stimulatory conditions were incubated with the spheroids in parallel as controls. Cells were assessed at various times for cytolytic function, CAR T cell number and cytokine production.

[7] = given for five days followed by a two day rest period (5/7 days), subjects with DLBCL; cited from earlier work
[8] = tested on: Granta-519 tumor spheroids; test: Granta-519 tumor spheroids, concurrent versus rescue treatment of long-term stimulated CAR T cells; type: cell-based, human; parameters: cytokine levels at day 5: dose or concentration left out as unconfirmed
Experimental: The long-term stimulated anti-CD19 CAR-expressing T cells were co-cultured by incubation with Granta-519 tumor spheroids and cells were assessed at various time points for cytolytic function and cytokine function. During concurrent treatments Compound 1 was present during the long-term stimulation but was not present during the co-culture with target cells. During the rescue treatment Compound 1 was not present during the long-term stimulation but was present during the co-culture with target cells.

[9] = tested on: Granta-519 or Raji target cells; test: Cytokine production and cytolytic activity of anti-CD19 CAR+ T cells with Granta-519 or Raji target cells; type: cell-based, human
Experimental: Similar studies as above were conducted using Granta-519 or Raji target cells to assess cytokine production and cytolytic activity of anti-CD19 CAR-expressing T cells upon co-culture with the target cells. As shown in FIG. 33B Raji cells were selected due to high expression of cell surface molecule CD19 when compared to Granta-519, as quantified by flow cytometry. Enumeration of CD19 was inferred by a standard curve generated using molecules of equivalent soluble fluorophore beads.
After 24 hours of culture cytokine production was monitored in the supernatant. […] Cytolytic activity also was measured for pooled donors over time of the co-culture.

O=C1CC[C@H](N2Cc3c(OCc4ccc(CN5CCOCC5)cc4)cccc3C2=O)C(=O)N1 [Compound 2, (S)-3-[4-(4-morpholin-4-ylmethyl-benzyloxy)-1-oxo-1,3-dihydro-isoindol-2-yl]-piperidine-2,6-dione]
cytolytic activity (tumor cell number over time) [1]: statistically significant improvement in cytolytic activity | cytolytic activity (tumor cell number over time) [2]: improved

Nc1cccc2c1CN(C1CCC(=O)NC1=O)C2=O (centres unmarked) [lenalidomide, 3-(4-amino-1-oxo-1,3-dihydro-2H-isoindol-2-yl)piperidine-2,6-dione]
expression level of Ikaros ([3]; 0.5 μM or 5 μM, 18 hours, all conditions): decreased | proliferative capacity of T cells (CTV dye) ([3]; 5 μM, 200 μg BCMA beads 1:1, three days): increased | surface expression of CD25 in CD4+ and CD8+ T cells ([3]; BCMA-conjugated beads or anti-CD3 stimulation): further increased | extent of CAR+ T cell expansion (EGFRt+) [4]: did not substantially impact | total cell count at day 7 ([4]; 50 μg beads): small increase in proliferation

Cc1nc2cccc(N)c2c(=O)n1C1CCC(=O)NC1=O (centres unmarked) [Compound 1, 3-(5-amino-2-methyl-4-oxo-4H-quinazolin-3-yl)-piperidine-2,6-dione]
levels of IFNγ and IL-2 [5]: increased levels | pEC50 ([6]; Homo sapiens, chronically stimulated CAR-T cells, A549 CD19+ spheroids, read-out: EC50 for effect on tumor volume reduction): 6.90 | numbers of CAR-T cells ([6]; day 5, 1 μM, fresh and chronically stimulated CAR-T cells): increase expansion and/or survival of CAR-T cells | cytokine production (IFN-γ, IL-2, TNF-α) ([6]; day 5, long-term stimulated CAR-expressing T cells): increased relative to co-cultures containing vehicle control | antigen-specific cytokine production and tumor reduction by chronically stimulated CAR-T cells ([6]; rescue treatment): restore antigen-specific cytokine production and tumor reduction | maximum tolerated dose (MTD) [7]: 4 mg | cytokine levels at day 5 ([8]; concurrent treatment): enhanced IFN-γ | tumor spheroid size at day 9 ([8]; concurrent treatment with long-term stimulation): concentration dependent decrease in tumor volume | cytokine levels at day 5 ([8]; delayed treatment with Compound 1): enhanced production of both IFN-γ and TNF-α | tumor spheroid size at day 9 ([8]; subsequent treatment after long-term stimulation): concentration dependent decrease in tumor volume | IL-2 production ([9]; 100 or 1000 nM, 2.5:1 E:T, 24 hours): increase compared to control | IFN-γ production ([9]; 100 or 1000 nM, 2.5:1 E:T, 24 hours, CD8+ CAR-expressing T cells): concentration dependent increase | cytolytic activity over time ([9]; pooled donors, CD8+ CAR-expressing T cells): limited effect
